Data on 3 compounds can be found in patent publication US5144059A, “Catecholamine esters” (priority 1989, dated 1992).

Data set [1] relates to Intraocular pressure in rabbit. Kind of data set: Intraocular pressure in rabbit after topical application. In kind it is in vivo. The conditions noted are these: 0.1% solution topical; for Intraocular pressure: individual animal, Hydrochloride; for Intraocular pressure, mean: N=6.
Data set [2] relates to Ocular Hypertension in Man. Kind of data set: Ocular pressure in patients with non-severe ocular hypertension after instillation. Type of data set: in vivo. The conditions noted are these: one drop 0.1% solution; for Ocular pressure: individual patient, Hydrochloride; for Ocular pressure, mean: N=4. The procedure: 1 drop of a 0.1% solution of 2B223 or 2B852, respectively, was instilled into each eye of 8 patients (males) suffering from non-severe ocular hypertension. Ocular pressure was tested at time 0, and 30, 120, 180 minutes after the ocular instillation. At same times blood pressure and heart rate were also tested.

A short description of data set [3]: Permeability across excised pig cornea (perfusion method, HPLC). Type of data set: in vitro ADME. To be noted: for Amount of unchanged product in the receiving compartment (permeability rate): 2.5 mM in donor, GBR pH 7.65, 34-35 °C; for Release of epinephrine inside the eye: conclusion from the excised cornea experiment; for Amount of epinephrine released by 2B223 in the receiving compartment: released by 2B223 (2450 nMoles in donor); for Amount of epinephrine released by 2B852 in the receiving compartment: released by 2B852 (2770 nMoles in donor). The procedure:
Perfusion method: pig corneas have been removed with about 2 mm of sclera and set on a perfusion cell.
The receiving compartment and that of the donor were respectively filled with 6 ml and 1 ml of GBR solution (Glutathione Bicarbonate Ringer's solution) preheated at 35° C.
During the analysis the cells were maintained at a temperature of 34°-35° C. with a thermostat (REACTI-THERM, Pierce). Besides, the solutions in the 2 compartments were maintained under a flow of 95% O2 --5% CO2 mixture.
The GBR solution in the donor compartment was then substituted with 1 ml of GBR solution saturated with O2 --CO2 containing, 2B223 or 2B852 (2.5 mM).
Aliquots of 600 μl were withdrawn from the receiving compartment every 40 minutes for a period of 4 hours and immediately replaced with an equal volume of GBR.
A solution of GBR with diclofenac (0.1%) maintained at the same conditions (temperature 34°-35° C. and gassed with (O2 --CO2) acted as control aliquots from the control were withdrawn at the same times.
The samples and the controls at various times were immediately analyzed by HPLC.
Solutions: Glutathione Bicarbonate Ringer's (GBR), pH 7.65. The GBR solution was prepared in two parts: part I was composed of sodium chloride 12.4 g/l, potassium chloride 0.716 g/l, sodium dihydrogen phosphate monohydrate 0.206 g/l and sodium bicarbonate 4.908 g/l while part II was composed of calcium chloride 0.230 g/l, magnesium chloride 0.318 g/l, glucose 1.8 g/l and oxidized glutathioine 0.184 g/l. Both parts were stored cold and utilized within two weeks.
Equal volumes of part I and II were mixed prior to use.

For data set [4] the following is noted: applied topically to the eye; stated as known; cited from earlier work.

Values joined by “and” are separate entries in the source; they are usually repeats but may differ in a detail not shown here. Equal entries are not always repeated.

`CNCC(O)c1ccc(OC(=O)N(C)C)c(OC(=O)c2ccc(C)cc2)c1.Cl` (centres unmarked) [2B223, 3-O-(4-Methylbenzoyl)-4-O-(N,N-Dimethylcarbamoyl)adrenaline Hydrochloride]: the Intraocular pressure was 12 mm Hg and 13 mm Hg and 11 mm Hg in data set [1] (1 hour); 13 mm Hg and 14 mm Hg in data set [1] (2 hours); 14 mm Hg and 15 mm Hg and 13 mm Hg in data set [1] (4 hours); 15 mm Hg and 16 mm Hg and 14 mm Hg in data set [1] (8 hours); 16 mm Hg and 15 mm Hg and 17 mm Hg in data set [1] (time 0 (baseline)). Also, the “Intraocular pressure, mean” value is on record as 12.2 mm Hg in data set [1] (1 hour); 13.3 mm Hg in data set [1] (2 hours); 14.2 mm Hg in data set [1] (4 hours); 15.2 mm Hg in data set [1] (8 hours); 16.0 mm Hg in data set [1] (time 0 (baseline)). Also, the Ocular pressure in data set [2] (left eye, 0 min (baseline)) was 26 mmHg and 25 mmHg; in data set [2] (left eye, 30 min), 25 mmHg and 23 mmHg; in data set [2] (left eye, 120 min) it was 20 mmHg and 22 mmHg; in data set [2] (left eye, 180 min), 22 mmHg and 24 mmHg and 25 mmHg; in data set [2] (right eye, 0 min (baseline)), 27 mmHg and 24 mmHg and 23 mmHg; in data set [2] (right eye, 30 min), 24 mmHg and 23 mmHg and 25 mmHg. For the same compound, the Ocular pressure in data set [2] (right eye, 120 min) was 22 mmHg and 21 mmHg and 23 mmHg; in data set [2] (right eye, 180 min), 23 mmHg and 22 mmHg and 24 mmHg. Moreover, the “Ocular pressure, mean” value in data set [2] (left eye, 0 min (baseline)) amounted to 25.8 mmHg; in data set [2] (left eye, 30 min) it was 24.5 mmHg; in data set [2] (left eye, 120 min), 21.5 mmHg; in data set [2] (left eye, 180 min), 23.8 mmHg; in data set [2] (right eye, 0 min (baseline)), 25.3 mmHg; in data set [2] (right eye, 30 min), 24.0 mmHg. In addition, the “Ocular pressure, mean” value in data set [2] (right eye, 120 min) was found to be 22.3 mmHg; in data set [2] (right eye, 180 min), 23.3 mmHg. The “Amount of unchanged product in the receiving compartment (permeability rate)” value in data set [3] (40 min) is 0.0 nmol; in data set [3] (80 min) it was 1.3 nmol; in data set [3] (120 min) it was 4.1 nmol; in data set [3] (160 min) it was 23.5 nmol. Also, in data set [3], the “Release of epinephrine inside the eye” value is given as “epinephrine is released inside the eye”.

In the case of `CNCC(O)c1ccc(OC(=O)N(C)C)c(OC(=O)C(C)C)c1.Cl` (centres unmarked) [2B852, 3-O-Isobutyryl-4-O-(N,N-Dimethylcarbamoyl)adrenaline Hydrochloride], the Intraocular pressure in data set [1] (1 hour) was 12 mm Hg and 13 mm Hg and 11 mm Hg; in data set [1] (2 hours) it was 13 mm Hg and 14 mm Hg; in data set [1] (4 hours), 14 mm Hg and 15 mm Hg; in data set [1] (8 hours), 16 mm Hg and 15 mm Hg and 14 mm Hg; in data set [1] (time 0 (baseline)), 15 mm Hg and 16 mm Hg. Besides, the “Intraocular pressure, mean” value in data set [1] (1 hour) came to 11.8 mm Hg; in data set [1] (2 hours), 13.5 mm Hg; in data set [1] (4 hours), 14.3 mm Hg; in data set [1] (8 hours) it was 15.3 mm Hg; in data set [1] (time 0 (baseline)), 15.7 mm Hg. Moreover, the Ocular pressure in data set [2] (left eye, 0 min (baseline)) is 27 mmHg and 26 mmHg; in data set [2] (left eye, 30 min), 26 mmHg and 24 mmHg and 25 mmHg; in data set [2] (left eye, 120 min), 24 mmHg and 22 mmHg and 25 mmHg; in data set [2] (left eye, 180 min), 23 mmHg and 25 mmHg; in data set [2] (right eye, 0 min (baseline)), 26 mmHg and 25 mmHg and 24 mmHg and 28 mmHg; in data set [2] (right eye, 30 min), 25 mmHg and 24 mmHg and 23 mmHg and 26 mmHg. Also, the Ocular pressure is 23 mmHg and 22 mmHg and 24 mmHg in data set [2] (right eye, 120 min); 25 mmHg and 22 mmHg and 23 mmHg and 24 mmHg in data set [2] (right eye, 180 min). Also, the “Ocular pressure, mean” value is on record as 26.5 mmHg in data set [2] (left eye, 0 min (baseline)); 25.3 mmHg in data set [2] (left eye, 30 min); 23.8 mmHg in data set [2] (left eye, 120 min); 23.8 mmHg in data set [2] (left eye, 180 min); 25.8 mmHg in data set [2] (right eye, 0 min (baseline)); 24.0 mmHg in data set [2] (right eye, 30 min). In addition, the “Ocular pressure, mean” value is listed as 23.0 mmHg in data set [2] (right eye, 120 min) and 23.5 mmHg in data set [2] (right eye, 180 min). Besides, the “Amount of unchanged product in the receiving compartment (permeability rate)” value in data set [3] (40 min), in data set [3] (80 min), in data set [3] (120 min) and in data set [3] (160 min) was 0.0 nmol throughout. Moreover, the “Release of epinephrine inside the eye” value in data set [3] was “epinephrine is released inside the eye”.

Turning to `CNC[C@H](O)c1ccc(O)c(O)c1` [EPINEPHRINE, epinephrine, reference compound], the “Permeation of cornea barrier” value in data set [4] is “does not permeate cornea barrier”. Besides, the “Amount of epinephrine released by 2B223 in the receiving compartment” value in data set [3] (40 min) came to 15.8 nmol; in data set [3] (80 min), 21.7 nmol; in data set [3] (120 min), 23.4 nmol; in data set [3] (160 min) it was 26.2 nmol. Besides, the “Amount of epinephrine released by 2B852 in the receiving compartment” value was 14.5 nmol in data set [3] (40 min), 23.7 nmol in data set [3] (80 min), 28.9 nmol in data set [3] (120 min) and 32.0 nmol in data set [3] (160 min).
